This note sets out measurements from patent publication US11453683B1, “KRas G12D inhibitors” (Mirati Therapeutics, Inc., priority 2019, dated 2022).

The subject of the experiment is KRas G12D-mediated phosphorylation of ERK. In words: Inhibition of KRas G12D-mediated phosphorylation of ERK in AGS cells. The format is cell-based. The conditions noted are these: Homo sapiens; AGS cells expressing G12D, 3 hours, phospho-ERK normalized to GAPDH. In a few lines: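 In-cell Western: p-ERK Thr202/Tyr204 signal over GAPDH, as % of DMSO control, with IC50 from a 4-parameter curve. AGS cells seeded 40,000/well for 12-14 h, exposed to compound 3 h at 0.5% DMSO final, then formaldehyde-fixed and methanol-permeabilized.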
A word on the IC50: it is the concentration that gives 50% inhibition. Higher therefore signals a need for much substance. Turning to `CN(C)C1CN(c2nc(N3C[C@H]4CC[C@@H](C3)N4)c3cnc(-c4cc(O)cc5ccccc45)c(F)c3n2)C1` [Example 120, 4-(4-((1R,5S)-3,8-diazabicyclo[3.2.1]octan-3-yl)-2-(3-(dimethylamino)azetidin-1-yl)-8-fluoropyrido[4,3-d]pyrimidin-7-yl)naphthalen-2-ol bis(2,2,2-trifluoroacetate)], the IC50 was 2090 nM.

`Fc1c(-c2cccc3cccc(OC(F)(F)F)c23)ncc2c(N3C[C@H]4CC[C@@H](C3)N4)nc(OCC34CCCN3CCC4)nc12` [Example 345, 4-((1R,5S)-3,8-diazabicyclo[3.2.1]octan-3-yl)-8-fluoro-2-((tetrahydro-1H-pyrrolizin-7a(5H)-yl)methoxy)-7-(8-(trifluoromethoxy)naphthalen-1-yl)pyrido[4,3-d]pyrimidine] showed an IC50 of 1470 nM.

`Fc1c(-c2cccc3cccc(Cl)c23)ncc2c(N3CC4CCC(C3)N4)nc(OC[C@@]34CCCN3C[C@H](F)C4)nc12` (stereo in doubt) [Example 134, 4-((1R,5S)-3,8-diazabicyclo[3.2.1]octan-3-yl)-7-(8-chloronaphthalen-1-yl)-8-fluoro-2-((2-fluorotetrahydro-1H-pyrrolizin-7a(5H)-yl)methoxy)pyrido[4,3-d]pyrimidine] came in with an IC50 of 895 nM.

For `CN1CCC[C@H]1CCOc1nc(N2C[C@H]3CC[C@@H](C2)N3)c2cnc(-c3cc(O)cc4ccccc34)c(F)c2n1` [Example 10, 4-(4-((1R,5S)-3,8-diazabicyclo[3.2.1]octan-3-yl)-8-fluoro-2-(2-((S)-1-methylpyrrolidin-2-yl)ethoxy)pyrido[4,3-d]pyrimidin-7-yl)naphthalen-2-ol], inhibition was half-maximal at 8120 nM (IC50).

The compound `CCc1cccc2cc(O)cc(-c3ncc4c(N5C[C@H]6CC[C@@H](C5)N6)nc(OC[C@]56CCCN5[C@@H](COC(=O)NC)CC6)nc4c3F)c12` [Example 433, ((3R,7aR)-7a-(((4-((1R,5S)-3,8-diazabicyclo[3.2.1]octan-3-yl)-7-(8-ethyl-3-hydroxynaphthalen-1-yl)-8-fluoropyrido[4,3-d]pyrimidin-2-yl)oxy)methyl)hexahydro-1H-pyrrolizin-3-yl)methyl methylcarbamate] yielded an IC50 of 43.2 nM.

`Nc1cccc(CCOc2nc(N3C[C@H]4CC[C@@H](C3)N4)c3cnc(-c4cc(O)cc5ccccc45)c(F)c3n2)n1` [Example 139, 4-(2-(2-(6-aminopyridin-2-yl)ethoxy)-4-((1R,5S)-3,8-diazabicyclo[3.2.1]octan-3-yl)-8-fluoropyrido[4,3-d]pyrimidin-7-yl)naphthalen-2-ol] returned an IC50 of 5250 nM.

Consider `C#Cc1c(F)ccc2cccc(-c3ncc4c(N5C[C@H]6CC[C@@H](C5)N6)nc(OC[C@@]56CCCN5C[C@H](F)C6)nc4c3F)c12` [Example 281, 4-((1R,5S)-3,8-diazabicyclo[3.2.1]octan-3-yl)-7-(8-ethynyl-7-fluoronaphthalen-1-yl)-8-fluoro-2-(((2R,7aS)-2-fluorohexahydro-1H-pyrrolizin-7a-yl)methoxy)pyrido[4,3-d]pyrimidine], for which the IC50 came out at 97.8 nM.

With `O=C(OC[C@H]1CC[C@@]2(COc3nc(N4CC5CCC(C4)N5)c4cnc(-c5cccc6cccc(Cl)c56)c(F)c4n3)CCCN12)N1CCCCC1` [Example 444, ((3R,7aR)-7a-(((4-(3,8-diazabicyclo[3.2.1]octan-3-yl)-7-(8-chloronaphthalen-1-yl)-8-fluoropyrido[4,3-d]pyrimidin-2-yl)oxy)methyl)hexahydro-1H-pyrrolizin-3-yl)methyl piperidine-1-carboxylate], the IC50 came out at 365 nM.

In turn, `CCc1cccc2cccc(-c3ncc4c(N5C[C@H]6CC[C@@H](C5)N6)nc(OCC56CCCN5CCC6)nc4c3F)c12` [Example 187, 4-((1R,5S)-3,8-diazabicyclo[3.2.1]octan-3-yl)-7-(8-ethylnaphthalen-1-yl)-8-fluoro-2-((tetrahydro-1H-pyrrolizin-7a(5H)-yl)methoxy)pyrido[4,3-d]pyrimidine] gave an IC50 of 450 nM.

The compound `CSc1cccc2cccc(-c3ncc4c(N5C[C@H]6CC[C@@H](C5)N6)nc(OCC56CCCN5CCC6)nc4c3F)c12` [Example 199, 4-((1R,5S)-3,8-diazabicyclo[3.2.1]octan-3-yl)-8-fluoro-7-(8-(methylthio)naphthalen-1-yl)-2-((tetrahydro-1H-pyrrolizin-7a(5H)-yl)methoxy)pyrido[4,3-d]pyrimidine] registered an IC50 of 465 nM.

As for `Oc1cc(-c2ncc3c(N4C[C@H]5CC[C@@H](C4)N5)nc(OC[C@@H]4CCCN4Cc4ccccc4)nc3c2F)c2ccccc2c1` [Example 12, 4-(2-(((S)-1-benzylpyrrolidin-2-yl)methoxy)-4-((1R,5S)-3,8-diazabicyclo[3.2.1]octan-3-yl)-8-fluoropyrido[4,3-d]pyrimidin-7-yl)naphthalen-2-ol], half-maximal inhibition (IC50) required 4910 nM.

`CN1CCC[C@H]1COc1nc(N2C[C@H]3CC[C@@H](C2)N3)c2cnc(-c3cccc4c3C3(CC4)CC3)c(F)c2n1` [Example 162, 4-((1R,5S)-3,8-diazabicyclo[3.2.1]octan-3-yl)-7-(2′,3′-dihydrospiro[cyclopropane-1,1′-inden]-7′-yl)-8-fluoro-2-(((S)-1-methylpyrrolidin-2-yl)methoxy)pyrido[4,3-d]pyrimidine bis(2,2,2-trifluoroacetate)] showed an IC50 of over 16700 nM.

The compound `COCCCN1CCC(Oc2nc(N3C[C@H]4CC[C@@H](C3)N4)c3cnc(-c4cc(O)cc5ccccc45)c(F)c3n2)CC1` [Example 41, 4-(4-((1R,5S)-3,8-diazabicyclo[3.2.1]octan-3-yl)-8-fluoro-2-((1-(3-methoxypropyl)piperidin-4-yl)oxy)pyrido[4,3-d]pyrimidin-7-yl)naphthalen-2-ol] registered an IC50 of 6650 nM.

Consider `C[C@H]1C[C@H]1c1ccccc1-c1ncc2c(N3C[C@H]4CC[C@@H](C3)N4)nc(OCC34CCCN3CCC4)nc2c1F` [Example 287, 4-((1R,5S)-3,8-diazabicyclo[3.2.1]octan-3-yl)-8-fluoro-2-((hexahydro-1H-pyrrolizin-7a-yl)methoxy)-7-(2-((1R,2S)-2-methylcyclopropyl)phenyl)pyrido[4,3-d]pyrimidine], for which the 50% inhibitory concentration (IC50) worked out at 8070 nM.

With `Cc1cccc(CCOc2nc(N3C[C@H]4CC[C@@H](C3)N4)c3cnc(-c4cc(O)cc5ccccc45)c(F)c3n2)n1` [Example 87, 4-(4-((1R,5S)-3,8-diazabicyclo[3.2.1]octan-3-yl)-8-fluoro-2-(2-(6-methylpyridin-2-yl)ethoxy)pyrido[4,3-d]pyrimidin-7-yl)naphthalen-2-ol], 10600 nM corresponded to half-maximal inhibition (IC50).

In turn, `COC(c1ccc(O)cc1-c1ncc2c(N3CC4CCC(C3)N4)nc(OC[C@@]34CCCN3C[C@H](F)C4)nc2c1F)C(F)(F)F` (stereo in doubt) [Example 390, 3-(4-((1R,5S)-3,8-diazabicyclo[3.2.1]octan-3-yl)-8-fluoro-2-((2-fluorotetrahydro-1H-pyrrolizin-7a(5H)-yl)methoxy)pyrido[4,3-d]pyrimidin-7-yl)-4-(2,2,2-trifluoro-1-methoxyethyl)phenol] came in with an IC50 of 6110 nM.

As to `CCc1cccc2cncc(-c3ncc4c(N5CC6CCC(C5)N6)nc(OCC56CCCN5C[C@H](F)C6)nc4c3F)c12` (mixture of isomers) [Example 324, 4-((1R,5S)-3,8-diazabicyclo[3.2.1]octan-3-yl)-7-(5-ethylisoquinolin-4-yl)-8-fluoro-2-((2-fluorotetrahydro-1H-pyrrolizin-7a(5H)-yl)methoxy)pyrido[4,3-d]pyrimidine], 864 nM corresponded to half-maximal inhibition (IC50).
